pIC50: −log10 of the molar value. Calls of active or inactive are those of the source.
Experiments:
[1] = molecular target: T1, Serine/threonine-protein kinase LATS1 (Homo sapiens) (UniProt O95835); test: Activation of LATS1 in human PC3 cells assessed as increase in YAP phosphorylation at Ser397 at 0.25 to 1.5 uM measured after 24 to 48 hrs by immunoblotting analysis; format: cell-based
T1 sequence (whole entry): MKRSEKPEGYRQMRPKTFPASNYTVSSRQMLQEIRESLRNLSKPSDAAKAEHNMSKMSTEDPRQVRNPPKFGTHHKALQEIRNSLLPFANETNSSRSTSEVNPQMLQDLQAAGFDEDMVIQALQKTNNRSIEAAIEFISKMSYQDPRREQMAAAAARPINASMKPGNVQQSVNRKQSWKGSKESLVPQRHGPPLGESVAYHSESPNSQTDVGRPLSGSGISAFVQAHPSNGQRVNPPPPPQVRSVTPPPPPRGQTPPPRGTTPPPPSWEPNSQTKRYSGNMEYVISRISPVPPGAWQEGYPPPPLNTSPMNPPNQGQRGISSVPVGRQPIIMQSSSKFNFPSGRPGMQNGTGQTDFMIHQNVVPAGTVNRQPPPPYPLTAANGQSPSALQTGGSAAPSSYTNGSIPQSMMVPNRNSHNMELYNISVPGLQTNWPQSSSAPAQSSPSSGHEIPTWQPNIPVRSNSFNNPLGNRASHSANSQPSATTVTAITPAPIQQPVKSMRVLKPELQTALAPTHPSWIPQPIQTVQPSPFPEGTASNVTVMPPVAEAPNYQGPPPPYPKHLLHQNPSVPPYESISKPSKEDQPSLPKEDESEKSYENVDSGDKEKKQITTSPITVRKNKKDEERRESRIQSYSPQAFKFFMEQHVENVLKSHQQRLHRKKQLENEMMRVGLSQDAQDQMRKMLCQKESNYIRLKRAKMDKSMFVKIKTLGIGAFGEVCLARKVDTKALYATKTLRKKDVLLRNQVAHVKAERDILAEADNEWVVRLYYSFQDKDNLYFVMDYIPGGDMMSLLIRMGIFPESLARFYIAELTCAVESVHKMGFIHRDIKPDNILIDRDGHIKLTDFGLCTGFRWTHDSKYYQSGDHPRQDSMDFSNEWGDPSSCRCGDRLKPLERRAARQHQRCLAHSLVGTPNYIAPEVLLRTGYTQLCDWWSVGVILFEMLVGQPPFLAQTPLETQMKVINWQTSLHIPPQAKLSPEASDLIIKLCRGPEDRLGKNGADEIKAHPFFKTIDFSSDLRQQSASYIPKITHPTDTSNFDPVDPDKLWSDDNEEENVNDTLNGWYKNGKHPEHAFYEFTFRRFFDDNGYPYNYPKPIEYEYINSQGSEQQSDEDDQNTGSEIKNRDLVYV

[2] = molecular target: T2, Serine/threonine-protein kinase 3/4 (Homo sapiens) (UniProt Q13043+Q13188); test: Activation of MST1/2 in human SUM159 cells assessed as effect on phosphorylation at T183/T180 residues at 0.25 to 1.5 uM measured after 12 hrs by Western blot analysis; format: cell-based
T2 sequence (Q13043 whole entry, looked up): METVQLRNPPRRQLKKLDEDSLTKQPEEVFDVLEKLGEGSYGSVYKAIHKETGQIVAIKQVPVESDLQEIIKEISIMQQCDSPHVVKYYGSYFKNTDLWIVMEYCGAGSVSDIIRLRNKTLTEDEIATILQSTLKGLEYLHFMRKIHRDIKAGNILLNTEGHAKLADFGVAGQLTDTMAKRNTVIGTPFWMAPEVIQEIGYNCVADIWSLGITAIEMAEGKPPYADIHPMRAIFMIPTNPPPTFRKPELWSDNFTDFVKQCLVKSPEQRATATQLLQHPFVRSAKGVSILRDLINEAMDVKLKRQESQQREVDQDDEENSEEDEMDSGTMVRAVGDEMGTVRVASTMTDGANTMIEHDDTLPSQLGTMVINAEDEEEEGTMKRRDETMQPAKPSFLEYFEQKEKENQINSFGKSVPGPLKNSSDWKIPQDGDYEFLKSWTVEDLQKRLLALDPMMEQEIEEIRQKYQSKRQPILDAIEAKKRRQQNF
T2 sequence (Q13188 whole entry, looked up): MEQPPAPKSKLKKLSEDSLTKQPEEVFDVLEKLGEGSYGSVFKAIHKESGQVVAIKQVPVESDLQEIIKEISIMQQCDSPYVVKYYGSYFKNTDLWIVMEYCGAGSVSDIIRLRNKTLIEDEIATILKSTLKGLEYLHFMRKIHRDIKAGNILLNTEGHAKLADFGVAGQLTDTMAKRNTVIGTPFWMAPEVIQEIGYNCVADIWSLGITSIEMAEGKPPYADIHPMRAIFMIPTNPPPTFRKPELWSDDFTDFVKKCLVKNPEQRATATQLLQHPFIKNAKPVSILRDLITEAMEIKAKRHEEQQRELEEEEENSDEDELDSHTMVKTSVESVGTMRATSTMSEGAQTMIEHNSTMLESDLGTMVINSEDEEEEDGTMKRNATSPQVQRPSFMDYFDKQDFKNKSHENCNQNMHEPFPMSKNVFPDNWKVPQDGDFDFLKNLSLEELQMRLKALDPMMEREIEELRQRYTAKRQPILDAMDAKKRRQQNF

[3] = molecular target: T2, Serine/threonine-protein kinase 3/4 (Homo sapiens); test: Activation of MST1/2 in human PC3 cells assessed as effect on phosphorylation at T183/T180 residues at 0.25 to 1.5 uM measured after 24 hrs by Western blot analysis; format: cell-based
Homo sapiens = organism: Homo sapiens; test: Activation of MOB in human PC3 cells assessed as phosphorylation at Thr35 residue at 0.25 to 1.25 uM measured after 24 hrs by Western blot analysis; format: cell-based
PC-9 [4] = test: Downregulation of TAZ protein expression in human PC9 cells at 0.25 to 1.5 uM measured after 12 to 24 hrs by immunoblotting analysis; format: functional, cell-based
SUM-159-PT [5] = test: Cytostatic activity against human SUM159 cells assessed as cell viability at concentration of greater than IC50 measured up to 72 hrs by MTT assay; format: functional, cell-based
PC-3 [6] = test: Cytotoxicity against human PC3 cells assessed as reduction in cell viability at 0.2 to 1.2 uM by MTT assay; format: functional, cell-based; conditions: TDE = time-dependent effect
[7] = molecular target: T1, Serine/threonine-protein kinase LATS1 (Homo sapiens); test: Activation of LATS1 in human PC9 cells assessed as induction of YAP degradation by measuring suppression of YAP protein expression at 0.25 to 1.5 uM measured after 12 to 24 hrs by immunoblotting analysis; format: cell-based
Mus musculus = test: Downregulation of YAP protein expression in tumor of athymic Nude-Foxn1nu BALB/c mouse xenografted with human MDA-MB-231 cells at 200 mg/kg, po administered once daily via gavage for 40 days by immunoblotting analysis; format: functional, organism-based
PC-9 [8] = test: Cytotoxicity against human PC9 cells assessed as reduction in cell viability at 0.2 to 1.2 uM by MTT assay; format: functional, cell-based; conditions: TDE = time-dependent effect
[9] = molecular target: T1, Serine/threonine-protein kinase LATS1 (Homo sapiens); test: Activation of LATS1 in human PC3 cells assessed as increase in YAP phosphorylation at Ser397 at 0.25 to 1.5 uM measured after 12 to 24 hrs by immunoblotting analysis; format: cell-based
[10] = molecular target: T1, Serine/threonine-protein kinase LATS1 (Homo sapiens); test: Activation of LATS1 in human MDA-MB-231 cells assessed as induction of YAP degradation by measuring suppression of YAP protein expression at 0.25 to 1.5 uM measured after 12 to 24 hrs by immunoblotting analysis; format: cell-based
PC-3 [11] = test: Cytotoxicity against human PC3 cells assessed as reduction in cell viability measured after 72 hrs by MTT assay; format: functional, cell-based
MCF7 = test: Cytostatic activity against human MCF7 cells assessed as cell viability at concentration of greater than IC50 measured up to 72 hrs by MTT assay; format: functional, cell-based
[12] = Acute toxicity in athymic Nude-Foxn1nu BALB/c mouse xenografted with human MDA-MB-231 cells assessed as effect on serum AST level at 200 mg/kg, po administered once daily via gavage for 14 days; format: organism-based; conditions: in vivo, 336 h
[13] = molecular target: T1, Serine/threonine-protein kinase LATS1 (Homo sapiens); test: Activation of LATS1 in human PC3 cells assessed as increase in phosphorylation at Thr1079 residue measured after 24 hrs by Western blot analysis; format: cell-based
SUM-159-PT [14] = test: Effect on MOB expression in human SUM159 cells at 0.25 to 1.5 uM measured after 12 hrs by Western blot analysis; format: functional, cell-based
[15] = molecular target: T1, Serine/threonine-protein kinase LATS1 (Homo sapiens); test: Activation of LATS1 in triple-negative human SUM159 cells assessed as induction of YAP degradation by measuring suppression of YAP protein expression at 0.25 to 1 uM measured after 12 hrs by Western blot analysis
[16] = molecular target: T1, Serine/threonine-protein kinase LATS1 (Homo sapiens); test: Activation of LATS1 in human […] cells assessed as increase in YAP phosphorylation at Ser397 at 0.25 to 1.5 uM measured after 12 to 24 hrs by immunoblotting analysis; format: cell-based
[17] = molecular target: Hepatocyte growth factor receptor (Homo sapiens) (UniProt P08581); test: Induction of c-MET degradation in human MDA-MB-231 cells assessed as suppression of c-MET expression at 0.1 to 0.8 uM by Western blot analysis; format: cell-based
Hepatocyte growth factor receptor (Homo sapiens), sequence (P08581 whole entry): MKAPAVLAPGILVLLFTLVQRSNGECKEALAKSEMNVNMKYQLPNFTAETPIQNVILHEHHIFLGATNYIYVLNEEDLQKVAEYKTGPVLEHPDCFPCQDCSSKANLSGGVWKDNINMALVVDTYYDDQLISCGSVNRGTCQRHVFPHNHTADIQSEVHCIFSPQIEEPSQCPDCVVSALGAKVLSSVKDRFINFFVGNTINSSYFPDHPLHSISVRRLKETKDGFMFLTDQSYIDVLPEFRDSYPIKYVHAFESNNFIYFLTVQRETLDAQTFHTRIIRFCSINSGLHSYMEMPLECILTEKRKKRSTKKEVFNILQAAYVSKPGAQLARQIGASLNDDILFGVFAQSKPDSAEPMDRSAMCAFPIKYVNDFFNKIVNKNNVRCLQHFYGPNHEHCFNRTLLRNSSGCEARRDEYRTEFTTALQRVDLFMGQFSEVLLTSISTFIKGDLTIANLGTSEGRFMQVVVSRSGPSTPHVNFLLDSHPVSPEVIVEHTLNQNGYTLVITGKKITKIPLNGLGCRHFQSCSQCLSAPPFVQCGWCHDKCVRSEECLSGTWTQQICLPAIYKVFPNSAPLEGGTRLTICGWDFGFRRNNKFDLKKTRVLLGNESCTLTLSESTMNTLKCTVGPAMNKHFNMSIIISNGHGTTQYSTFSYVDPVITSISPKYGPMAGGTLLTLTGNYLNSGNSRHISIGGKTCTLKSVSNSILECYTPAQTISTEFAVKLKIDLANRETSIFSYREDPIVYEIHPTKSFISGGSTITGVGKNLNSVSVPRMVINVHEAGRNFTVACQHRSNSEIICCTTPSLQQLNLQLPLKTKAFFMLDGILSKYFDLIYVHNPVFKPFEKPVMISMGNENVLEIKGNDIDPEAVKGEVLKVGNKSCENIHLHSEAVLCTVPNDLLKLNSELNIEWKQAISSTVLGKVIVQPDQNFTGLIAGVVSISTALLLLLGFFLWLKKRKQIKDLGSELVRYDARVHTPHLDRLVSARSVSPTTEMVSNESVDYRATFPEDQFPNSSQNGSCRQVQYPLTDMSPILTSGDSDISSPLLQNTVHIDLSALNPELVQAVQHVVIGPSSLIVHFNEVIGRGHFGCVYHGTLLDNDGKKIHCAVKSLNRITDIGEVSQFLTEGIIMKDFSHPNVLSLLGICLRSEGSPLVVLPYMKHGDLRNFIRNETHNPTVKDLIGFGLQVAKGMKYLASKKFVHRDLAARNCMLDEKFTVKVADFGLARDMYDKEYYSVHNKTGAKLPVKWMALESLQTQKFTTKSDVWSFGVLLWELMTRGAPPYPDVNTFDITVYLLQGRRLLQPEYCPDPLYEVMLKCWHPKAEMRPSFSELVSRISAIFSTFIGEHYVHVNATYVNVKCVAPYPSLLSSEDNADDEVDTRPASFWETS

PC-9 [18] = test: Cytotoxicity against human PC9 cells assessed as reduction in cell viability measured after 72 hrs by MTT assay; format: functional, cell-based

CC(=O)Nc1ccc(NC(=O)Nc2cccc(-c3nc(-c4ccc(NC(=O)c5cccnc5)cc4Cl)no3)c2)cc1C(F)(F)F
active: inhibition (PC-9 [4]) | Activity (SUM-159-PT [5]) | Activity (PC-3 [6]) Tde | Activity [7] | inhibition (Mus musculus) | Activity (PC-9 [8]) Tde | Activity [9] | Activity [10] | Activity (PC-3 [11]) Dose-dependent effect | Activity (MCF7) | Activity [13] Dose-dependent effect | Activity [15] | Activity [16] | Activity (PC-9 [18]) Dose-dependent effect
Non-Toxic: Activity [12]
inactive: Activity [1] | Activity [2] | Activity [3] | Activity (Homo sapiens) | Activity (SUM-159-PT [14]) | Activity [17]
6.10 to 6.40: pIC50 (PC-3 [11]; PC-3, 72 h) | pIC50 (PC-9 [18]; PC-9, 72 h)

Reference: ChEMBL document CHEMBL4342507, “Targeting YAP Degradation by a Novel 1,2,4-Oxadiazole Derivative via Restoration of the Function of the Hippo Pathway” (ACS Med Chem Lett, 2020)
